BindingDB's records for doi:10.1016/S0960-894X(01)80277-8 (1994)

Assay: Binding to delta opioid receptor by using [3H]DPDPE as radioligand in guinea pig brain minus cerebellum

| SMILES | IC50 [µM] |
| --- | --- |
| CC(=O)c1ccc2c3c1O[C@H]1[C@@H](O)C=C[C@H]4[C@@H](C2)N(C)CC[C@@]341 [1-[14-hydroxy-4-methyl-(1S,5R,13R,14S,17R)-12-oxa-4-azapentacyclo[9.6.1.01,13.05,17.07,18]octadeca-7(18),8,10,15-tetraen-10-yl]-1-ethanone] | 7.9 |
| CN1CC[C@]23c4c5ccc(-c6ccoc6)c4O[C@H]2[C@@H](O)C=C[C@H]3[C@H]1C5 [10-(3-furyl)-4-methyl-(1S,5R,13R,14S,17R)-12-oxa-4-azapentacyclo[9.6.1.01,13.05,17.07,18]octadeca-7(18),8,10,15-tetraen-14-ol] | 7.4 |
